In paper PMC12299576 (Viruses, 2025):
Like-named read-outs stand apart in the source and are kept apart here.

Legend:
HTNV-76118 strain [1] = test: microbe, parasite or virus in culture; format: cell-based, Hantaan virus (HTNV); conditions: for EC50: Orthohantavirus hantanense, Vero C1008, read-out: EC50, Virucidal
in vitro = conditions: African green monkey
HTNV-76118 strain [2] = test: microbe, parasite or virus in culture; format: cell-based, Hantaan virus (HTNV); conditions: Orthohantavirus hantanense, Vero C1008, 120 h
HTNV-76118 strain [3] = test: microbe, parasite or virus in culture; format: cell-based, Hantaan virus (HTNV); conditions: Orthohantavirus hantanense, Vero C1008, read-out: EC50, 2H pretreatment
HTNV-76118 strain [4] = test: microbe, parasite or virus in culture; format: cell-based, Hantaan virus (HTNV); conditions: Orthohantavirus hantanense, Vero C1008, read-out: EC50, Post entry
HTNV = format: cell-based, Hantaan virus (HTNV)

SMILES | direct virucidal effect on HTNV (HTNV-76118 strain [1]) | EC50 (HTNV-76118 strain [1]) [µM] | CC50 (in vitro) [µM] | EC50 (HTNV-76118 strain [2]) [nM] | EC50 (HTNV-76118 strain [3]) [µM] | EC50 (HTNV-76118 strain [4]) [µM] | suppression of viral replication (HTNV nucleoprotein immunofluorescence) (HTNV)
NC(=O)c1ncn([C@@H]2O[C@H](CO)[C@@H](O)[C@H]2O)n1 [Ribavirin, ribavirin, reference compound] | neither compound exhibited a direct virucidal effect | > 200 | > 200 | 20500 ± 1630 | > 200 | 13.2 ± 0.4 | –
CC(C)CC(=O)c1c(O)c2c(c3c1OC1(O)C(C(=O)C(C)(C)C(=O)C1(C)C)C3CC(C)C)OC1=C(C(=O)C(C)(C)C(=O)C1(C)C)C2CC(C)C (stereo not shown) [Callistemontrimer B, callistemontrimer B] | – | – | 16.9 ± 1 | 2790 ± 1400 | – | – | –
CC(C)CC(=O)c1c(O)cc2c(c1O)C(CC(C)C)C1=C(O2)C(C)(C)C(=O)C(C)(C)C1=O (stereo not shown) [Rhodomyrtone, rhodomyrtone] | – | – | 5.11 ± 2.49 | 300 ± 30 | – | – | –
CC(C)CC(=O)c1c(O)c2c(c3c1OC1(O)C(C(=O)C(C)(C)C(=O)C1(C)C)C3C(C)C)OC1=C(C(=O)C(C)(C)C(=O)C1(C)C)C2CC(C)C (stereo not shown) [Callistemontrimer A, callistemontrimer A] | neither compound exhibited a direct virucidal effect | > 50 | 32.1 ± 6 | 4410 ± 3400 | > 50 | 0.65 ± 0.45 | effectively suppressed viral replication
CC(C)CC(=O)c1c(O)cc(O)c2c1OC1=C(C(=O)C(C)(C)C(=O)C1(C)C)C2CC(C)C (stereo not shown) [Rhodomyrtosone B, rhodomyrtosone B] | – | – | 7.44 ± 1.15 | 2690 ± 320 | – | – | –
